According to patent US7595171B2 (Sinotrade Technology Limited, priority 2005, dated 2009):
Where two headings read alike, the source gives them in different places. Marks after values point to notes of the source that are not given here.

Tests used:
[1] = system: Weed; assay: Pre-emergence herbicide trial: weed control; assay type: in vivo
[2] = system: A. palaestina; assay: Seed germination after gibberellic acid pre-soak; assay type: in vivo, Adonis palaestina
Procedure: Adonis […] populations were evaluated for seed viability and germination. Although seed viability is fair (about 30 to about 70%), germination is very low.

[3] = system: Adonis seedlings
Excerpt: Seedlings emerging from metribuzin-treated soil were sprayed with a grass-specific herbicide [graminicide; (RS)-7-(4,6-dimethoxypyrimidin-2-ylthio)-3-methyl-2-benzofuran-1(3H)-one] at the seed leaf stage; this would normally be expected to “check” the seedlings (i.e.; cause a degree of non-lethal stress) when applied at the usual time (three true leaf stage).

[4] = system: Weed; assay: Container trials: weed control at reduced metribuzin level; assay type: in vivo
[5] = system: Adonis; assay: Pre-emergence herbicide trial: Adonis seedling establishment; assay type: in vivo, Adonis palaestina; settings: for Adonis seedling density: after graminicide stress treatment
[6] = system: Rainbow trout; assay: Rainbow trout feeding trial: astaxanthin levels in fillets before and after freezing and smoking; assay type: in vivo; settings: averaged over three fillet zones
Procedure: (§1) Rainbow trout fed synthetic or Adonis-derived astaxanthin in a feeding trial were harvested 63 days after the feeding trial started and the astaxanthin levels were examined spectrophotometrically (Minolta Chroma Meter) and chemically (by HPLC analysis after lipid removal from the flesh extract) before and after freezing (2 months) and smoking. The initial astaxanthin levels in the feed were adjusted to achieve similar levels of pigmentation of the fish before treatments were carried out. Because pigment levels vary along the length of the fish, measurements were carried out at three positions along each fish (head, mid-body and tail).

[7] = as above; assay type: in vivo; settings: rainbow trout, fillet (flesh), oral, Control treatment, averaged over three fillet zones, read-out: HPLC astaxanthin level Average
Procedure: as §1

[8] = system: Sclerotinia sclerotiorum; assay: Dosage effect of pure cardenolides on pathogen growth (Sclerotinia); assay type: cell-based; settings: pure cardenolide
Procedure: Two different cardenolides (cymarin and strophanthidin) were assessed for their dosage effect on pathogen response.

[9] = system: Adonis; settings: at high pH
Procedure: Container trials were conducted on the effect of sand content and soil pH on metribuzin-associated Adonis mortality.

[10] = 25 % manufacturer's recommended rate
[11] = 50 % manufacturer's recommended rate
[12] = 12.5 % manufacturer's recommended rate

For `COC(=O)NS(=O)(=O)c1ccc(N)cc1` [Asulox ®, methyl(4-aminophenyl)sulfonylaminoformate], the Weed density [1, 10] was 86 % cover, the Weed density [1, 11] was 74 % cover and the Weed density ([1]; 100 % manufacturer's recommended rate) was 87 % cover. The weed control ([1]; pre-emergence herbicide) was “did not achieve much weed control”.
With `C=C1C[C@]23C[C@@]1(O)CC[C@H]2[C@@]12C=C[C@H](O)[C@@](C)(C(=O)O1)[C@H]2[C@@H]3C(=O)O` [Gibberellic acid, gibberellic acid] the germination ([2]; 24-hour incubation with GA in ethanol at room temperature) was “further improved germination”, the “% germination” value ([2]; 1000 ppm, pre-soak 24 hours, 4 °C) was 4.3% and the “% germination” value ([2]; 1000 ppm, pre-soak 24 hours, 16 °C) was 8.7%. The “% germination” value ([2]; 1000 ppm, pre-soak 48 hours, 4 °C) was 13.7%, the “% germination” value ([2]; 1000 ppm, pre-soak 48 hours, 16 °C) was 22.3% and the “% germination” value ([2]; 2000 ppm, pre-soak 24 hours, 4 °C) was 10.7%. The “% germination” value ([2]; 2000 ppm, pre-soak 24 hours, 16 °C) was 12.6%, the “% germination” value ([2]; 2000 ppm, pre-soak 48 hours, 4 °C) was 20.4% and the “% germination” value ([2]; 2000 ppm, pre-soak 48 hours, 16 °C) was 28.7%. For the same molecule, the “% germination” value ([2]; 3500 ppm, pre-soak 24 hours, 4 °C) was 21.4%, the “% germination” value ([2]; 3500 ppm, pre-soak 24 hours, 16 °C) was 25.7% and the “% germination” value ([2]; 3500 ppm, pre-soak 48 hours, 4 °C) was 28.7%. For the same molecule, the “% germination” value ([2]; 3500 ppm, pre-soak 48 hours, 16 °C) was 45.7%, the “% germination” value ([2]; 5000 ppm, pre-soak 24 hours, 4 °C) was 28.0% and the “% germination” value ([2]; 5000 ppm, pre-soak 24 hours, 16 °C) was 34.7%. The “% germination” value ([2]; 5000 ppm, pre-soak 48 hours, 4 °C) was 40.3%, the “% germination” value ([2]; 5000 ppm, pre-soak 48 hours, 16 °C) was 64.7% and the germination ([2]; pre-soaking seed in 5000 ppm for 24 hours before sowing) was 64.7%.
With `CSc1nnc(C(C)(C)C)c(=O)n1N` [Metribuzin, 4-amino-6-tert-butyl-4,5-dihydro-3-methlythio-1,2,4-triazin-5-one] the seedling death ([3]; 500 g/ha metribuzin, graminicide sprayed at seed leaf stage) was 30%, the Adonis density ([3]; Metribuzin 250 g/ha, +Graminicide, −Urea) was 97 # plants m^−2 and the Adonis density ([3]; Metribuzin 250 g/ha, −Graminicide, +Urea) was 107 # plants m^−2. The Adonis density ([3]; Metribuzin 250 g/ha, −Graminicide, −Urea) was 103 # plants m^−2, the Adonis density ([3]; Metribuzin 500 g/ha, +Graminicide, +Urea) was 94 # plants m^−2 and the Adonis density ([3]; Metribuzin 500 g/ha, +Graminicide, −Urea) was 65 # plants m^−2. For the same molecule, the Adonis density ([3]; Metribuzin 500 g/ha, −Graminicide, +Urea) was 104 # plants m^−2, the Adonis density ([3]; Metribuzin 500 g/ha, −Graminicide, −Urea) was 98 # plants m^−2 and the Adonis density ([3]; Metribuzin (pre) + 250 (post) g/ha, +Graminicide, +Urea) was 107 # plants m^−2. The Adonis density ([3]; Metribuzin (pre) + 250 (post) g/ha, +Graminicide, −Urea) was 105 # plants m^−2, the Adonis density ([3]; Metribuzin (pre) + 250 (post) g/ha, −Graminicide, +Urea) was 102 # plants m^−2 and the Adonis density ([3]; Metribuzin (pre) + 250 (post) g/ha, −Graminicide, −Urea) was 100 # plants m^−2. For the same molecule, the weed control ([4]; 125 g/ha) was “inadequate”, the weed control ([4]; 250 g/ha) was “reasonable weed control” and the Adonis seedling density [5, 12] was 12.1 m^−2. For the same molecule, the Adonis seedling density [5, 10] was 5.9 m^−2, the Adonis seedling density [5, 11] was 1.2 m^−2 and the “safety on Adonis” value ([5]; pre-emergence herbicide) was “could be used safely on Adonis”. The Weed density [1, 12] was 85 % cover, the Weed density [1, 10] was 79 % cover and the Weed density [1, 11] was 56 % cover.
For `CC1=C(/C=C/C(C)=C/C=C/C(C)=C/C=C/C=C(C)/C=C/C=C(C)/C=C/C2=C(C)C(=O)C(O)CC2(C)C)C(C)(C)CC(O)C1=O` (stereo not drawn) [Synthetic, 3,3′-dihydroxy-β,β-carotene-4,4′-dione], the “Spectrophotometric (Hunter a values) Average” value (shortened to “Spectrophotometric”) ([6]; Control treatment, harvested 63 days) was 6.5, the “HPLC astaxanthin level Average” value ([6]; Frozen (2 months)) was 11.2 mg/kg fish and the “Spectrophotometric” value ([6]; Frozen (2 months)) was 4.2. The “HPLC astaxanthin level Average” value ([6]; Smoked) was 14.0 mg/kg fish, the “Spectrophotometric” value ([6]; Smoked) was 5.8 and the concentration at 63 days [7] was 15100 ng/g.
With `NC(N)=O` [Urea, urea] the Adonis density ([3]; Metribuzin 0 g/ha, −Graminicide, +Urea) was 95 # plants m^−2.
For `CO[C@H]1C[C@H](O[C@H]2CC[C@]3(C=O)[C@H]4CC[C@]5(C)[C@@H](C6=CC(=O)OC6)CC[C@]5(O)[C@@H]4CC[C@]3(O)C2)O[C@H](C)[C@H]1O` [cymarin], the “growth of Sclerotinia” value [8] was “inhibited”.
In the case of `CCOP(=S)(OCC)Oc1nc(Cl)n(C(C)C)n1` [isazophos, O-(5-Chloro-1-(1-methylethyl)-1H-1,2,4-triazol-3-yl) O,O-diethyl phosphorothioate], the “interaction with metribuzin (Adonis mortality)” value [9] is reported as “negative interaction”.
For `C[C@]12CC[C@H]3[C@@H](CC[C@]4(O)C[C@@H](O)CC[C@]34C=O)[C@@]1(O)CC[C@@H]2C1=CC(=O)OC1` [strophanthidin], the “growth of Sclerotinia” value [8] was “inhibited”.
